The results in this text go back to ChEMBL document CHEMBL1177767, “The discovery and initial optimisation of pyrrole-2-carboxamides as inhibitors of p38alpha MAP kinase” (Bioorg Med Chem Lett, 2010).

What all share (type): ADME, organism-based
The nature of data set [1]: Oral bioavailability in CD rat at 1 mg/kg after 7 hrs by LC-MS/MS analysis. As to conditions: in vivo.
Data set [2] in a line: Clearance in CD rat at 1 mg/kg, iv and 1 mg/kg, po after 7 hrs by LC-MS/MS analysis. As to conditions: in vivo.
Data set [3] can be described thus: Half life in CD rat at 1 mg/kg, iv and 1 mg/kg, po after 7 hrs by LC-MS/MS analysis. To be noted: in vivo.
The nature of data set [4]: Apparent volume of distribution at steady state in CD rat at 1 mg/kg, iv and 1 mg/kg, po after 7 hrs by LC-MS/MS analysis. To be noted: in vivo, read-out: Vdss.

The structures appear in SMILES notation.

Consider `Cc1ccccc1C(=O)c1c[nH]c(C(=O)NCc2ccco2)c1`, for which the bioavailability in data set [1] turned out to be 18%. Further, the clearance in data set [2] is 56 mL/min/kg. Moreover, the half-life in data set [3] was 9.6 min. Further, the Vd in data set [4] turned out to be 0.931 L/kg.

What is called bioavailability is the share of a dose that reaches the circulation, judged against a reference dose that is usually intravenous. Low readings indicate little systemic uptake, high ones much systemic uptake. As usually defined, the half-life is the time in which the quantity being followed falls by half.
